Assay results reported in patent publication US5591773A, “Inhibition of cataract formation, diseases resulting from oxidative stress, and HIV replication by caffeic acid esters” (priority 1994, dated 1997).
Several values for one entry are separate records, joined by “and”; a condition that tells them apart may be missing. Equal entries are not always repeated. Entries after “also recorded” stand apart in the source; their conditions may differ.

Columns and labels:
[1] = system: TPA-induced cataracts in eyes of rabbits; assay: TPA-induced cataracts in rabbits in vivo; design: species or system white New Zealand rabbits; settings: daily TPA-containing drops, 6 week period
[2] = system: TPA-induced cataracts in eyes of rabbits; assay: TPA-induced cataracts in rabbits in vivo; design: species or system white New Zealand rabbits; settings: for cataract appearance, rabbit No. 5 (in words): conclusion of the experiment; for cataract appearance, other test animals (in words): rabbit, in vivo
Procedure: B) Test animals. Six healthy young (6-8 weeks old) white New Zealand rabbits of both sexes were used for the experiments. Each animal had normal eyes as confirmed by ocular examination by slit lamp.
C) Treatment of animals and monitoring the eye alterations. Cataracts were induced by the direct application of both TPA and CAPE into the eye chamber. On every third day, 0.05 ml of the TPA solution (200 μg/ml PBS) was injected into the anterior chamber of both eyes via a puncture at the corneo-scleral limbus with a fine 0.3×42 mm needle joined to a tuberculin syringe. The animals were all given local anesthesia with HUMACAIN eye drops (human, Godollo, Hungary) under sterile conditions for each application. One hour after TPA was injected, 0.05 ml of the CAPE solution (50 μg/ml) was administered into the anterior chamber of only the left eye, as above. The right eye of each animal received no further treatment. This procedure was repeated a total of 16 times. Periodic ocular examinations by slit lamp were performed after the 6th, 12th, and final drug applications. Subsequently, examinations were made on the 10th and 23rd days after the last drug treatment. After each ocular examination, the physical findings were recorded and photodocumentation of the eye changes were performed. The photographic documentary was executed in the following manner. Firstly, lenses were illuminated by a fiber optic light source from behind and photographs were taken from a distance of 5-6 cm. The diapositive black and white images on paper were transferred into an IBM personal computer (system 2, model 30) using a Sony-2-Cue CCD video camera that was equipped with Fujinon TV zoom objective (1:1.8) via a 17.5-105 signal-transfer system. Finally, with these computer image reconstructions, the areas of the lens opacifications were delineated and quantified using the Olympus image analyzer C-2 morphometry version 2.2 program.

mouse skin = settings: cited from earlier work
[3] = system: TPA-induced edema in SENCAR mouse ears; assay: TPA-induced ear edema; format: in vivo, SENCAR mice
Procedure: FIG. 3. Effect of CAPE on TPA-induced PMN infiltration and edema in SENCAR mouse ears. These were paired experiments, in which both ears of each mouse (8-9/group) were treated with 0.4 nmol TPA±CAPE in 20 μl acetone, and the mice were sacrificed 5 h later. (A) One ear was frozen for subsequent determination of MPO (a measure of PMN infiltration). (B) A punch (6 mm diameter) was taken from the second ear and weighed to measure edematous response (weight of sample minus weight of control). (A) Ears of each group (7-9/group) were separately minced and homogenized under different conditions as described in the "Experimental Details" Section, infra. MPO was determined in duplicate. MPO was undetectable in acetone controls and was 4.13±0.0 units/mg protein and 1.18±0.1 units/mg protein in the 2 homogenates of TPA-only-treated mice. CAPE-mediated inhibition was calculated versus the appropriate TPA-only sample, which was homogenized the same way. (B) Weights of ear punches (8-9/group, each determined separately). Acetone controls, 7.2±0.1 mg; TPA in acetone, 16.7±0.7 mg.
B) Edema Determination. Both ears of SENCAR mice (7-9 mice/group) were treated with 0.4 nmol TPA in 20 μl acetone alone or together with added 0.1 nmol, 0.3 nmol, or […] CAPE. Control mice were treated with acetone. The mice were sacrificed by cervical dislocation 5 h after treatment, and edema was measured on one mouse ear, while the second ear was immediately frozen and later analyzed for PMN infiltration by quantifying myeloperoxidase (MPO) (see below). Ear edema (increased weight of ear punches) was determined as previously described (24). Edema was expressed as mg/6 mm (diameter) ear punch±SE.

[4] = system: ornithine decarboxylase (ODC); assay: TPA-induced ornithine decarboxylase (ODC) in CD-1 mice; format: in vivo; settings: CAPE 1 μmol, TPA 5 nmol, (76)
Procedure: (§1) A) Treatment of Animals and Assays. Female SENCAR (6-8 weeks old) and CD-1 mice (about 7 weeks old) were purchased from Biological Testing, National Cancer Institute (Frederick, Md.) and from Charles River Laboratory (Stone Ridge, N.Y.), respectively. The mice were acclimated for at least 1 week before use. They were subjected to a 12-h light/12-h dark cycle, housed at 20°±2° C. in a room with 10 cycles of air exchanges/h, given food and water ad libitum, and observed for any indication of ill health. Before topical application of any test agents, their backs were shaved and only those without hair growth after 48 h were used.

[5] = system: NIH 10T1/2, Ltk^- and rat 6 cells transformed with T24 oncogene; settings: cited from earlier work
HIV integrase = settings: cited from earlier work
[6] = system: untransformed rat 6 cells; settings: cited from earlier work
[7] = system: ornithine decarboxylase (ODC); assay: TPA-induced ornithine decarboxylase (ODC) in SENCAR mice; format: in vivo; settings: CAPE 10 μmol, TPA 4 nmol
Procedure: as §1

| SMILES | alteration in lens transparency (in words) [1] | Size of cataract, Control (TPA-treated right eye) ([2]; TPA 0.05 ml of 200 μg/ml into anterior chamber every third day, 16 times, one line per animal) | induction of cataracts in live rabbits (in words) ([2]; TPA injected into anterior chamber) | cataract appearance, rabbit No. 5 (in words) [2] | cataract appearance, other test animals (in words) [2] | H2O2 production and oxidation of DNA bases in vivo (in words) (mouse skin) | weight of ear punches ([3]; TPA 0.4 nmol in acetone, 5 h, 6 mm punch) | inhibition of TPA-induced ODC [4] | area of TPA-induced cataracts larger in eye without CAPE than in CAPE-injected eye ([2]; 5 of 6 animals) | Size of cataract, CAPE (TPA + CAPE treated left eye) ([2]; CAPE 0.05 ml of 50 μg/ml 1 h after TPA, 16 times, one line per animal) | Size of cataract, % of Control ([2]; left (TPA + CAPE) vs right (TPA) eye of the same animal, one line per animal) | lens appearance, effect of CAPE (in words) ([2]; left eye, intracameral CAPE after TPA) | animals with smaller cataract in CAPE-treated eye ([2]; rabbits, termination of the experiment) | growth inhibition (in words) [5] | HIV integrase inhibition (in words) (HIV integrase) | growth inhibition, untransformed rat 6 cells (in words) [6] | inhibition of TPA-induced ODC [7] | orders of magnitude higher CAPE dose needed for similar inhibition of edema vs PMN infiltration ([3]; 1 μmol vs 0.1 nmol CAPE/ear) | inhibition of TPA-induced ear edema (in words) ([3]; CAPE 1 μmol/ear, TPA 0.4 nmol/ear) | fold higher CAPE dose required to comparably inhibit ear edema versus PMN infiltration in skin ([3]; relative to 6.5 nmol CAPE, same mouse strain, (76)) |
| --- | --- | --- | --- | --- | --- | --- | --- | --- | --- | --- | --- | --- | --- | --- | --- | --- | --- | --- | --- | --- |
| CCCCCCCCCCCCCC(=O)O[C@@H]1[C@@H](C)[C@@]2(O)[C@@H](C=C(CO)C[C@]3(O)C(=O)C(C)=C[C@@H]23)[C@@H]2C(C)(C)[C@]12OC(C)=O [TPA, 12-O-tetradecanoylphorbol-13-acetate] | failed to induce any visible alteration in the transparency of the lenses | 63.139 relative units and 14.704 relative units and 104.97 relative units and 111.62 relative units and 99.923 relative units and 28.578 relative units | Cataracts of various sizes and types were evident by ocular examination in both eyes starting after the 12th TPA injection; also recorded: potent inducer of cataracts in the eyes of live rabbits | a rather large arched subcortical condensed immature but developing cataract is evident | larger, more mature cataracts that had spread deeply into the nuclear region | induce H2 O2 production in mouse skin as well as cause oxidation of DNA bases in vivo | 16.7 ± 0.7 mg | – | – | – | – | – | – | – | – | – | – | – | – | – |
| O=C(/C=C/c1ccc(O)c(O)c1)OCCc1ccccc1 [CAPE, Caffeic acid phenethyl ester] | – | – | – | a small capsular-subcapsular immature cataract is evident | generally smaller and more immature | – | – | 55% | 2.2-44.2 times | 1.428 relative units and 6.739 relative units and 10.77 relative units and 28.722 relative units and 30.199 relative units and 43.184 relative units | 2.25% and 45.83% and 10.26% and 25.73% and 30.22% and 151.11% | significantly clearer; also recorded: produced a prophylactic effect on incipient cataracts; also recorded: significantly reduced the pathological effects of this phorbol ester | 5 out of the 6 | inhibited | inhibits HIV integrase | but not that of the untransformed rat 6 cells | 62% | 4 orders of magnitude | inhibits | > 100 fold |
